Measurements reported in patent US5506213A, “Adminstration of 2'-halo-2'-deoxy adenosine to treat inflammatory bowel disease” (priority 1994, dated 1996).

System: human fibroblast cell line GM01380
Assay: In vitro cytotoxicity toward human fibroblast cell line (MTT reduction assay)
Format: cell-based
Conditions: 20 nM CdA, five days
Method: FIG. 2 is a graph illustrating the dose-response cytotoxicity of 2-chlorodeoxyadenosine (CdA) towards normal human monocytes (open squares), the human fibroblast cell line, GM01380, which is from normal fetal lung (open diamonds) and normal human lymphocytes (closed diamonds), when cultured in vitro. Cells were cultured in vitro as described in Example 2 for five days in the presence of varying concentrations of CdA from 0 to 125 nanomolar (nM), after which time viable cells were determined. The percentage of viable cells remaining after treatment (ordinate) is plotted against the concentration of CdA utilized (abscissa), on a linear scale. The effect of the presence of deoxycytidine (dCyd, 100 μM) on CdA toxicity toward monocytes (closed squares) is also illustrated. […]
Toxicity towards the monocytes and fibroblasts was determined by a modification of the MTT reduction assay described in Mosmann (1983) J. Immunol. […]
Viable cell numbers were determined using a Dynatech microplate spectrophotometer, measuring absorbance at a wavelength of 570 nanometers (nm), using a reference wavelength of 630 nm. The assay could detect as few as 2000 unactivated monocytes, and the absorbance of MTT formazan at 570 nm was linear with respect to the number of monocytes over a range of about 2.5-20×10^3 cells.

Nc1nc(Cl)nc2c1ncn2[C@H]1C[C@H](O)[C@@H](CO)O1 [CdA, 2-chloro-9,1'-beta-D-2'-deoxyribosyladenine]
toxicity on the growth of fibroblast cells: no appreciable toxicity
